{
  "source": "paper PMC10897476",
  "about": "“Pyridylpiperazine efflux pump inhibitor boosts in vivo antibiotic efficacy against K. pneumoniae” (EMBO Molecular Medicine, 2023)",
  "format_in_all_cases": "cell-based, Klebsiella pneumoniae",
  "key": {"K. pneumoniae AcrB^V448E [1]": {"test_system": "K. pneumoniae AcrB^V448E", "assay": "MIC of antibiotics with and without EPI (REMA), AcrB V448E mutant", "conditions": "K. pneumoniae-AcrB^V448E, Table 2", "in_short": "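K. pneumoniae ATCC 43816 carrying single chromosomal acrB or ramR mutations introduced by allelic exchange, diluted to OD600 = 0.001 in CAMHB with EPI at final 100 µM. Incubated 37 °C up to 20 h; viability by resazurin fluorescence (Ex 530/Em 590 nm).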"}, "[2]": {"test_system": "K. pneumoniae ATCC 43816 (WT)", "assay": "Checkerboard assay levofloxacin x EPI, WT strain", "conditions": "for checkerboard growth readout: ATCC43816 WT, levofloxacin 0 ng/mL; for percentage resazurin turnover: individual replicates, listed as PABN; for Median REMA values (percentage resazurin turnover): median n=3", "description": "(§1) MIC experiments were carried out according to the CLSI guidelines (CLSI [2023]). Overnight cultures were diluted to an OD600 = 0.001 in CAMHB followed by addition of efflux pump inhibitors (EPIs) at a final concentration of 100 µM. […] Plates were incubated at 37 °C for up to 20 h. Bacterial viability was evaluated using the resazurin microtitre assay (REMA) and measured by fluorescence using a Tecan Spaert multimode plate reader (Ex: 530 nm Em: 590 nm). MICs were defined as the concentration that prevented 90% of resazurin turnover compared to the non-treated bacteria.\n(§2) Bacterial suspensions, incubation and plate readouts were carried out as described above."}, "K. pneumoniae AcrB^V448E [3]": {"test_system": "K. pneumoniae AcrB^V448E", "assay": "Checkerboard assay levofloxacin x EPI, AcrB V448E mutant", "conditions": "for checkerboard growth readout: ATCC43816 AcrBV448E, levofloxacin 0 ng/mL; for Median REMA values / percentage resazurin turnover: Lev 0.00 ng/mL", "description": "as §1, §2"}, "[4]": {"test_system": "K. pneumoniae RamR^mut (K124*stop)", "assay": "Checkerboard assay levofloxacin x EPI, RamR mutant", "conditions": "for checkerboard growth readout: ATCC43816 ramRmut, levofloxacin 0 ng/mL", "description": "as §1, §2"}, "[5]": {"test_system": "K. pneumoniae AcrB^V448E RamR^mut", "assay": "Checkerboard assay levofloxacin x EPI, double mutant", "conditions": "ATCC43816 AcrBV448E ramRmut, levofloxacin 0 ng/mL", "description": "as §1, §2"}},
  "note": "Values joined by “and” are separate entries in the source; they are usually repeats but may differ in a detail not shown here. Identical values can stand only once. Where a SMILES comes first, the peptide text is derived from it.",
  "data": [
    {"compound": "NC(N)=NCCC[C@H](NC(=O)[C@@H](N)Cc1ccccc1)C(=O)Nc1ccc2ccccc2c1", "note": "[PAβN] (HELM PEPTIDE1{F.R.[c1ccc2cc(N[*:1])ccc2c1]}$$$$V2.0)", "values": [
      {"measurement": "susceptibility of the strain to antibiotic boosting by the EPI, in words", "setting": "K. pneumoniae AcrB^V448E [1]", "value": "remained sensitive"},
      {"measurement": "checkerboard growth readout", "setting": "[2]; EPI 2.3 µM", "value": 75},
      {"measurement": "checkerboard growth readout", "setting": "[2]; EPI 4.7 µM", "value": 87},
      {"measurement": "checkerboard growth readout", "setting": "[2]; EPI 9.4 µM", "value": 110},
      {"measurement": "checkerboard growth readout", "setting": "[2]; EPI 19 µM", "value": 116},
      {"measurement": "checkerboard growth readout", "setting": "[2]; EPI 38 µM", "value": 154},
      {"measurement": "checkerboard growth readout", "setting": "[2]; EPI 75 µM", "value": 143},
      {"measurement": "checkerboard growth readout", "setting": "[2]; EPI 150 µM", "value": 129},
      {"measurement": "checkerboard growth readout", "setting": "[2]; EPI 300 µM", "value": 135},
      {"measurement": "percentage resazurin turnover", "setting": "[2]; Lev 0.00 ng/mL + EPI 2.34 uM", "value": "100% and 75% and 71%"},
      {"measurement": "Median REMA values (percentage resazurin turnover)", "setting": "[2]; Lev 0.00 ng/mL + EPI 2.34 uM", "value": 75, "unit": "%"},
      {"measurement": "percentage resazurin turnover", "setting": "[2]; Lev 0.00 ng/mL + EPI 4.69 uM", "value": "108% and 87% and 69%"},
      {"measurement": "Median REMA values (percentage resazurin turnover)", "setting": "[2]; Lev 0.00 ng/mL + EPI 4.69 uM", "value": 87, "unit": "%"},
      {"measurement": "percentage resazurin turnover", "setting": "[2]; Lev 0.00 ng/mL + EPI 9.38 uM", "value": "112% and 110% and 90%"},
      {"measurement": "Median REMA values (percentage resazurin turnover)", "setting": "[2]; Lev 0.00 ng/mL + EPI 9.38 uM", "value": 110, "unit": "%"},
      {"measurement": "percentage resazurin turnover", "setting": "[2]; Lev 0.00 ng/mL + EPI 18.75 uM", "value": "116% and 136% and 109%"},
      {"measurement": "Median REMA values (percentage resazurin turnover)", "setting": "[2]; Lev 0.00 ng/mL + EPI 18.75 uM", "value": 116, "unit": "%"},
      {"measurement": "percentage resazurin turnover", "setting": "[2]; Lev 0.00 ng/mL + EPI 37.50 uM", "value": "154% and 197% and 115%"},
      {"measurement": "Median REMA values (percentage resazurin turnover)", "setting": "[2]; Lev 0.00 ng/mL + EPI 37.50 uM", "value": 154, "unit": "%"},
      {"measurement": "percentage resazurin turnover", "setting": "[2]; Lev 0.00 ng/mL + EPI 75.00 uM", "value": "134% and 143% and 152%"},
      {"measurement": "Median REMA values (percentage resazurin turnover)", "setting": "[2]; Lev 0.00 ng/mL + EPI 75.00 uM", "value": 143, "unit": "%"},
      {"measurement": "percentage resazurin turnover", "setting": "[2]; Lev 0.00 ng/mL + EPI 150.00 uM", "value": "129% and 156% and 124%"},
      {"measurement": "Median REMA values (percentage resazurin turnover)", "setting": "[2]; Lev 0.00 ng/mL + EPI 150.00 uM", "value": 129, "unit": "%"},
      {"measurement": "percentage resazurin turnover", "setting": "[2]; Lev 0.00 ng/mL + EPI 300 uM", "value": "162% and 135% and 125%"},
      {"measurement": "Median REMA values (percentage resazurin turnover)", "setting": "[2]; Lev 0.00 ng/mL + EPI 300 uM", "value": 135, "unit": "%"},
      {"measurement": "checkerboard growth readout", "setting": "K. pneumoniae AcrB^V448E [3]; EPI 2.3 µM", "value": 91},
      {"measurement": "checkerboard growth readout", "setting": "K. pneumoniae AcrB^V448E [3]; EPI 4.7 µM", "value": 95},
      {"measurement": "checkerboard growth readout", "setting": "K. pneumoniae AcrB^V448E [3]; EPI 9.4 µM", "value": 107},
      {"measurement": "checkerboard growth readout", "setting": "K. pneumoniae AcrB^V448E [3]; EPI 19 µM", "value": 112},
      {"measurement": "checkerboard growth readout", "setting": "K. pneumoniae AcrB^V448E [3]; EPI 38 µM", "value": 147},
      {"measurement": "checkerboard growth readout", "setting": "K. pneumoniae AcrB^V448E [3]; EPI 75 µM", "value": 161},
      {"measurement": "checkerboard growth readout", "setting": "K. pneumoniae AcrB^V448E [3]; EPI 150 µM", "value": 143},
      {"measurement": "checkerboard growth readout", "setting": "K. pneumoniae AcrB^V448E [3]; EPI 300 µM", "value": 143},
      {"measurement": "boosting of levofloxacin activity, in words", "setting": "K. pneumoniae AcrB^V448E [3]; K. pneumoniae AcrB^V448E", "value": "maintained"},
      {"measurement": "Median REMA values", "setting": "K. pneumoniae AcrB^V448E [3]; PABN 2.34 uM", "value": 91, "unit": "%"},
      {"measurement": "percentage resazurin turnover", "setting": "K. pneumoniae AcrB^V448E [3]; PABN 2.34 uM", "value": "108% and 91% and 74%"},
      {"measurement": "Median REMA values", "setting": "K. pneumoniae AcrB^V448E [3]; PABN 4.69 uM", "value": 95, "unit": "%"},
      {"measurement": "percentage resazurin turnover", "setting": "K. pneumoniae AcrB^V448E [3]; PABN 4.69 uM", "value": "95% and 102% and 74%"},
      {"measurement": "Median REMA values", "setting": "K. pneumoniae AcrB^V448E [3]; PABN 9.38 uM", "value": 107, "unit": "%"},
      {"measurement": "percentage resazurin turnover", "setting": "K. pneumoniae AcrB^V448E [3]; PABN 9.38 uM", "value": "113% and 107% and 80%"},
      {"measurement": "Median REMA values", "setting": "K. pneumoniae AcrB^V448E [3]; PABN 18.75 uM", "value": 112, "unit": "%"},
      {"measurement": "percentage resazurin turnover", "setting": "K. pneumoniae AcrB^V448E [3]; PABN 18.75 uM", "value": "120% and 112%"},
      {"measurement": "Median REMA values", "setting": "K. pneumoniae AcrB^V448E [3]; PABN 37.50 uM", "value": 147, "unit": "%"},
      {"measurement": "percentage resazurin turnover", "setting": "K. pneumoniae AcrB^V448E [3]; PABN 37.50 uM", "value": "147% and 150% and 121%"},
      {"measurement": "Median REMA values", "setting": "K. pneumoniae AcrB^V448E [3]; PABN 75.00 uM", "value": 161, "unit": "%"},
      {"measurement": "percentage resazurin turnover", "setting": "K. pneumoniae AcrB^V448E [3]; PABN 75.00 uM", "value": "161% and 123% and 162%"},
      {"measurement": "Median REMA values", "setting": "K. pneumoniae AcrB^V448E [3]; PABN 150.00 uM", "value": 143, "unit": "%"},
      {"measurement": "percentage resazurin turnover", "setting": "K. pneumoniae AcrB^V448E [3]; PABN 150.00 uM", "value": "143% and 146% and 114%"},
      {"measurement": "Median REMA values", "setting": "K. pneumoniae AcrB^V448E [3]; PABN 300 uM", "value": 143, "unit": "%"},
      {"measurement": "percentage resazurin turnover", "setting": "K. pneumoniae AcrB^V448E [3]; PABN 300 uM", "value": "143% and 112%"},
      {"measurement": "checkerboard growth readout", "setting": "[4]; EPI 2.3 µM", "value": 83},
      {"measurement": "checkerboard growth readout", "setting": "[4]; EPI 4.7 µM", "value": 85},
      {"measurement": "checkerboard growth readout", "setting": "[4]; EPI 9.4 µM", "value": 97},
      {"measurement": "checkerboard growth readout", "setting": "[4]; EPI 19 µM", "value": 113},
      {"measurement": "checkerboard growth readout", "setting": "[4]; EPI 38 µM", "value": 126},
      {"measurement": "checkerboard growth readout", "setting": "[4]; EPI 75 µM", "value": 200},
      {"measurement": "checkerboard growth readout", "setting": "[4]; EPI 150 µM", "value": 177},
      {"measurement": "checkerboard growth readout", "setting": "[4]; EPI 300 µM", "value": 157},
      {"measurement": "reversion of RamR-mediated levofloxacin resistance, in words", "setting": "[4]; K. pneumoniae RamR^mut", "value": "only be partially reverted"},
      {"measurement": "checkerboard growth readout", "setting": "[5]; EPI 2.3 µM", "value": 79},
      {"measurement": "checkerboard growth readout", "setting": "[5]; EPI 4.7 µM", "value": 95},
      {"measurement": "checkerboard growth readout", "setting": "[5]; EPI 9.4 µM", "value": 80},
      {"measurement": "checkerboard growth readout", "setting": "[5]; EPI 19 µM", "value": 121},
      {"measurement": "checkerboard growth readout", "setting": "[5]; EPI 38 µM", "value": 158},
      {"measurement": "checkerboard growth readout", "setting": "[5]; EPI 75 µM", "value": 211},
      {"measurement": "checkerboard growth readout", "setting": "[5]; EPI 150 µM", "value": 226},
      {"measurement": "checkerboard growth readout", "setting": "[5]; EPI 300 µM", "value": 191}
    ]}
  ]
}
